Results reported in publication PMC11560554 (Chembiochem : a European journal of chemical biology, 2024).

Biological target: T1, human macrophage galactose-type lectin (hMGL) (Homo sapiens, UniProt Q8IUN9)
T1 sequence (Q8IUN9 1-316): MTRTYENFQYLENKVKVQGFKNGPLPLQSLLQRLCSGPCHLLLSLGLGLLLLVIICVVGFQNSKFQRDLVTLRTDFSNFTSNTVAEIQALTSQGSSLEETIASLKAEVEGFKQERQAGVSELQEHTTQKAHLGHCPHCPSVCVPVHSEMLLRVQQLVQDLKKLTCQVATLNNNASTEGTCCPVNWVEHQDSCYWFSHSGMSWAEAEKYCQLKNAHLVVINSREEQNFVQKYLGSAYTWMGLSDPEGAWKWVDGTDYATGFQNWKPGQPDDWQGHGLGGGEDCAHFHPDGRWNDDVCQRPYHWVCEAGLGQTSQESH
Test: ITC analysis of binding of GalNAc and MUC1

[1] = 10 mM HEPES sodium salt, 50 mM NaCl, 2 mM CaCl2, pH 7.4, 298 K, one-site model

**Q.** `CC(=O)N[C@H]1C(O)O[C@H](CO)[C@H](O)[C@@H]1O` (mixture of isomers) [GalNAc, N-acetylgalactosamine] was tested. Which KA [1] did it give?
**A.** 68000 M⁻¹

**Q.** What about the ΔG [1] of the same compound?
**A.** -6.59 kcal/mol

**Q.** And the “−TΔS” value [1]?
**A.** 4.97 kcal/mol

**Q.** What about the “n (stoichiometry)” value (complete saturation of hMGL, functional valency = 1/n, pH 7.4, 298 K) of the same compound?
**A.** 0.99
